Common to all, as to assay type: cell-based
Assay [1] deals with PGE2. Put plainly: PGE2 inhibition in LPS-stimulated macrophages (ELISA). The following applies: LPS 1 ㎍/ml. Background: An ELISA detects its analyte on a solid surface through an enzyme-linked reagent.
For assay [2], the system named is Streptococcus mutans. Put plainly: Paper disc antibacterial test, Streptococcus mutans. The following applies: 24-48 h incubation, untreated: no inhibition.
Assay [3] concerns Porphyromonas gingivalis. Kind of assay: Paper disc antibacterial test, Porphyromonas gingivalis. Conditions: anaerobic, 24-48 h incubation, untreated: no inhibition.

Usually inhibition stands for the percentage by which the read-out fell short of the control. Read a high inhibition as a response far below the control.

As for `O=C(/C=C/c1ccc(O)c2c1[C@H](C(=O)O)[C@@H](c1ccc(O)c(O)c1)O2)O[C@H](Cc1ccc(O)c(O)c1)C(=O)O` [리소스퍼믹 액시드, lithospermic acid], the “PGE2 inhibition, concentration dependence (in words)” value in assay [1] is recorded as “농도 의존적으로 PGE2를 억제하는 효과”. For the same compound, in assay [1] (Macrophage, 2ppm, 24 h, compared with LPS-only group), the inhibition at 2 ppm is around 50%. Besides, in assay [1] (Macrophage, 20ppm, 24 h, compared with LPS-only group), the inhibition at 20 ppm was around 70%. Moreover, the “growth inhibition zone diameter” value in assay [2] (10 mg/disc, 8 mm disc, 37, BHI) was around 10.0 mm; in assay [3] (10 mg/disc, 8 mm disc, 37, TSA Hemin Menadione medium) it was around 10.0 mm. Besides, the zone of inhibition at 10 mg/disc in assay [2] (Streptococcus mutans, 8 mm disc, 37, BHI, read-out: growth inhibition zone diameter) came out at 10.7 mm; in assay [3] (Porphyromonas gingivalis, 8 mm disc, 37, TSA Hemin Menadione medium, read-out: growth inhibition zone diameter) it was 9.8 mm.

These data come from patent KR20180046249A, “리소스퍼믹 액시드를 포함하는 구강질환 예방 또는 치료용 조성물” (주식회사 엘지생활건강, priority 2016, dated 2018).
